Experimental data reported in US11690818B2, “Drug containing liver targeting specific ligand and thyroid hormone receptor agonist” (priority 2018, dated 2023).

Experiments:
db/db mice [1] = assay: Example 4: serum TC, LDL and TG in db/db mice; assay type: in vivo; details: subcutaneous injection daily for 21 days, Kylo-0100 13.5, Kylo-0101 48.4, Kylo-0102 43.3, Kylo-0103 43.3 μg/kg, vs saline control group
Description: (§1) The mice needed to adapt to the environment before the experiment, and healthy mice were selected as test animals, and reared in IVC cages at a density of 5 animals/cage with the litter being changed twice a week.
(§2) The body weight was weighed twice a week, and the administration was carried out continuously for 21 days. After the last administration, the mice were fasted overnight for 15-16 hours, sacrificed by CO2 anesthesia. The blood was collected by cardiac puncture, left to stand at room temperature for 2 hours, and centrifuged on a low temperature centrifuge at 3000 RPM for 10 minutes to collect serum, which was then stored in a −80° C. refrigerator for later use. The contents of total cholesterol (TC), low-density lipoprotein (LDL) and triglyceride (TG) in the serum were measured on a blood biochemical analyzer.

db/db mice [2] = assay: Example 4: bone mineral density and body weight of db/db mice; assay type: in vivo; details: Kylo-0100 13.5, Kylo-0101 48.4 μg/kg sc daily
Description: as §1
as §2, with “After the last administration, the mice were fasted overnight for 15-16 hours, sacrificed by CO2 anesthesia.” left out
On the 18th day of the administration, the mice were intraperitoneally injected with the anesthetic (xylazine combined with ketamine, 10 ml/Kg, IP), and the bone mineral density and body fat ratio of the mice were measured on a bone density meter.

| SMILES | serum TC level reduction rate (db/db mice [1]) [%] | serum TG level reduction rate (db/db mice [1]) [%] | bone mineral density (BMD) (db/db mice [2]; 18th day of administration, vs saline control group) | effect on the body weight of mice (db/db mice [2]; 21 days) | serum LDL level reduction rate (db/db mice [1]) [%] |
| --- | --- | --- | --- | --- | --- |
| N[C@@H](Cc1cc(I)c(Oc2ccc(O)c(I)c2)c(I)c1)C(=O)O [Kylo-0100, triiodothyronine] | 34.68 | 42.55 | significantly lower than that of the saline control group | significant effect | – |
| CC(=O)NC1C(OCCCCC(=O)NCCCNC(=O)CCOCC(COCCC(=O)NCCCNC(=O)CCCCOC2OC(CO)C(O)C(O)C2NC(C)=O)(COCCC(=O)NCCCNC(=O)CCCCOC2OC(CO)C(O)C(O)C2NC(C)=O)NC(=O)CCCCCNC(=O)[C@H](Cc2cc(I)c(Oc3ccc(O)c(I)c3)c(I)c2)NC(=O)OC(C)(C)C)OC(CO)C(O)C1O (stereo partly shown) [Kylo-0103] | 44.37 | 43.94 | – | – | 15.25 |
